From patent EP2386565A2, “Compounds and methods to inhibit or augment an inflammatory response” (Cambridge Enterprise Ltd., priority 1999, dated 2000)
Non-standard residues stand in square brackets, D forms with d. Residues, ends and D or L forms follow the SMILES beside them. No end group written: not given here. *: point of attachment. Biotin = O=C1N[C@H]2[C@H](CS[C@H]2CCCCC(=O)*)N1

Columns and labels:
[1] = test system: MCP-1 induced THP-1 migration; experiment: THP-1 trans-well migration assay, MCP-1 as chemoattractant; format: cell-based, human
Method: (§1) To determine whether an agent inhibits a chemokine-induced activity, such as macrophage recruitment, varying amounts of the agent are mixed with cells in the presence of a known chemoattractant. For example, a range of known concentrations of an agent, e.g., a chemokine peptide, is incubated with a defined number (e.g., 10^4 - […]) of human THP-1 monocyte cells in individual wells of the top compartment of a trans-well plate. Chemokine (such as MCP-1, MIP1α, IL8 or SDF-1α), at a concentration known to cause significant migration of THP-1 cells in the trans-well migration assay, is placed in the lower compartment (Figure 1). Cells are then incubated at 37°C for a period sufficient to allow migration, e.g., 4 hours. After incubation, the cells are gently removed from the top of the filter with a pipette, 20 µl of 20 mM EDTA in simple PBS is added into each top well, and incubated for 20 minutes at 4°C. The filter is carefully flushed with media using a gentle flow, and removed. A standard curve consisting of a two-fold dilution series of THP-1 cells (in 29 µl) is prepared to accurately quantify the number of cells that have migrated. Migrated cells are stained with 3 µl of MTT stock dye solution which is added directly into each well (5 mg/ml in RPMI-1640 without phenol red, Sigma Chemical Co.) and incubated at 37°C for 4 hours. The media is carefully aspirated from each well, and the converted dye is solubilized by 20 µl of DMSO. Absorbance of converted dye is measured at a wavelength of 595 nm using an ELISA plate reader. The number of migrated cells in each well is then determined by interpolation of the standard curve (see also Imai et al.,J. Biol. Chem., 272, 15036 (1997)).
Any method suitable for counting cells can be used, for example, counting with a hemocytometer, incubation of the cells with MTT (see above), or FACS analysis. A negative control assay is also performed, using TGF-β or another non-chemokine chemoattractant (e.g., IL1β or TNFα). To assess whether the agent is cytotoxic, the same concentrations of agent are incubated with THP-1 cells. Agents which 1) are not cytotoxic at levels which inhibit migration, 2) are ineffective at inhibiting the negative control-induced migration, and 3) reduce or inhibit chemokine-induced THP-1 migration, are agents which fall within the scope of the invention.
For this assay, THP-1 cells were maintained at a density of 4 × 10^5 cells per ml in RPMI-1640 supplemented with 10% fetal calf serum + 20 µM 2-mercaptoethanol. Chemotaxis was induced in a 96-well disposable chemotaxis chamber fitted with a 5 µM polycarbonate filter (PVP free, ChemoTX, Neuroprobe Inc., Cabin John). […] The framed filter was aligned with the holes in the corner of the filter frame and placed over the wells.
(§2) Five × 10^4 THP-1 cells in 25 µl of RPMI-1640 were added to the upper compartment. Peptides were dissolved in Milli Q water and then serially diluted in culture medium. In most cases, the serially diluted peptides were added to the upper compartment of the chemotaxis chamber. The chamber was incubated at 37°C in a humidified atmosphere of 5% CO2 for 4 hours.
After incubation, the cells were gently removed from the top of the filter with a pipette, 20 µl of 20 mM EDTA in PBS was added into each top well, and the mixture was incubated for 20 minutes at 4°C. The filter was then carefully flushed with media using a gentle flow, and removed. A standard curve was prepared to accurately quantify the number of THP-1 cells that had migrated. The curve was based on a two-fold dilution series of THP-1 cells (top standard 100,000 cells in 29 µl). Cells which had migrated, and in separate wells, the cells in the standards, were stained with 3 µl of MTT stock solution which was added directly into each well (5 mg/ml in RPMI 1640 without phenol red, Sigma Chemical Co.) and incubated at 37°C for 4 hours. The media was carefully aspirated from each well, and the converted dye was solubilized by 20 µl of DMSO. […]

HIV = format: cell-based; details: ns = not significant
[2] = test system: MIP1α induced THP-1 migration; experiment: THP-1 trans-well migration assay, MIP1α as chemoattractant; format: cell-based, human; details: inhibition of THP-1 migration; n.s./ns = not statistically significant
Method: as §1
(§3) For this assay, THP-1 cells were maintained at a density of 4 × 10^5 cells per ml in RPMI-1640 supplemented with 10% fetal calf serum + 20 µM 2-mercaptoethanol. Chemotaxis was induced in a 96-well disposable chemotaxis chamber fitted with a 5 µM polycarbonate filter (PVP free, ChemoTX, Neuroprobe Inc., Cabin John). Twenty-nine µl of chemoattractant (recombinant human chemokine; 50 ng/ml, i.e., 5.9 nM) or control (100 ng/ml TGFβ) was added to the lower compartment of each well. The framed filter was aligned with the holes in the corner of the filter frame and placed over the wells.
as §2
(§4) After incubation, the cells were gently removed from the top of the filter with a pipette, 20 µl of 20 mM EDTA in PBS was added into each top well, and the mixture was incubated for 20 minutes at 4°C. The filter was then carefully flushed with media using a gentle flow, and removed. A standard curve was prepared to accurately quantify the number of THP-1 cells that had migrated. The curve was based on a two-fold dilution series of THP-1 cells (top standard 100,000 cells in 29 µl). Cells which had migrated, and in separate wells, the cells in the standards, were stained with 3 µl of MTT stock solution which was added directly into each well (5 mg/ml in RPMI 1640 without phenol red, Sigma Chemical Co.) and incubated at 37°C for 4 hours. The media was carefully aspirated from each well, and the converted dye was solubilized by 20 µl of DMSO. Absorbance of converted dye was measured at a wavelength of 595 nm using an ELISA plate reader. The number of cells that had migrated in each well was determined by interpolation of the standard curve.
(§5) To investigate the receptor specificity of peptide 3 inhibition, the ED50 was determined for peptide 3(1-12)[MCP-1] (SEQ ID NO:1) inhibition of THP-1 migration induced by chemokines which signal through different receptors than MCP-1 receptors. […]

gp120 = details: ns = not significant; >100 = ED50 not determined
Method: Binding assays. Cells (either Jurkat T-cells or THP-1 cells) were grown in RPMI 1640 medium supplemented with 10% fetal calf serum, 2 mM glutamine, 20 µM β-mercaptoethanol, 100 U/ml penicillin and 100 µg/ml streptomycin and maintained between 2 × 10^5 and 1 × 10^6 cells/ml. Prior to performing a binding assay, cells were spun out (100 × g; 4 minutes) and washed 3 times in ice-cold PBS. A volume of cell suspension in PBS containing 10^6 cells (for Jurkat cells) or 4 × 10^5 cells (for THP-1 cells) was pipetted into each well of a V-bottom 96-well plate (Gibco BRL) and spun out (100 x g; 4 minutes). Triplicate wells were then resuspended in 100 µl binding medium (PBS pH 7.2 containing 0.1% fatty acid-free bovine serum albumin (BSA)) containing labeled peptide in the presence or absence of various concentrations of unlabeled peptide. The plate was then incubated on ice for 90 minutes. Cells were washed 3 times with 380 µl of ice-cold PBS, spinning out the cells each time (100 × g; 4 minutes), and resuspended in 100 µl binding medium containing streptavidin-peroxidase (Amersham International) at 1:1000 dilution. Cells were incubated for a further 15 minutes on ice to allow labeling of any bound biotinylated peptide, then washed 4 times as above. Cells were then incubated with 200 µl TMB substrate (K-Blue, Bionostics) for 20 minutes at room temperature, and the reaction stopped by addition of 50 µl 2 M HCl. The plate was spun (3,000 × g; 3 minutes) and 200 µl of the colored product was transferred to an empty 96-well ELISA plate and the absorbance at 450 nm determined. For each assay, the absorbance of a blank reaction (no peptide added) was subtracted from all readings before further analysis.
Binding experiments with labeled peptide 2 were performed with 10 nM labeled peptide in each reaction.

[3] = test system: SDF-1α induced THP-1 migration; experiment: THP-1 trans-well migration assay, SDF-1α as chemoattractant; format: cell-based, human; details: inhibition of THP-1 migration; n.s./ns = not statistically significant
Method: as §1, §3, §2, §4, §5

[4] = Pharmacokinetics of radiolabeled D-ala peptide after IV or SQ bolus; format: in vivo, mice
Method: When ^3H-D-ala peptide 3(1-12)[MCP-1] (^3H-D-ala was attached to Asp) was given as an intravenous (IV) or subcutaneous (SQ) bolus to mice, peak serum concentrations were reached within 1 hour. This radiolabeled peptide was rapidly excreted (approximately 4 hours), primarily via the kidney. […] Direct comparison of ^3H-D-ala peptide 3(1-12)[MCP-1] (no DARC binding and rapidly cleared) and CRD-L-Leu4Ile11Cys13peptide 3(3-12)[MCP-1]

[5] = test system: recombinant human chemokine receptors; experiment: Binding of biotin-labeled peptide to parental and chemokine receptor expressing HOS and CHO lines (125I-streptavidin); details: labeled peptide at 10 µM
Excerpt: HOS parental cells and CCR1-5 and CXCR4 transformants were obtained from the AIDS Reagent Program and were maintained as described on the supplier data sheet. Selection for the chemokine receptor-expressing plasmid was maintained throughout culture. CHO parental cells and CXCR1 and CXCR2 transformants were obtained form Dr. J. Navarro (Southwestern University, TX, USA) and maintained as described by the supplier under constant selection for expression of the chemokine receptor. All cells were split at about a 1:10 dilution approximately every 4 days, releasing the cells with EDTA solution and reseeding at known density. […]
The binding of labeled peptide 2 and labeled peptide 3 to the parental HOS, parental CHO and 8 chemokine receptor expressing lines was compared. […] The amount of streptavidin molecules added was calculated in each case to be approximately 50-fold in excess over the number of chemokine receptor sites. […]
To determine whether this apparent binding of peptide 2 was cell dependent, or whether it was binding to the plastic (or the some component of the fetal calf serum used during the cell culture), the following experiment was conducted. Three plates were evaluated: One had HOS parental cells, another had CCR5 over-expressors and the third had no cells but was incubated with the FCS-containing culture medium. […]

For CC[C@@H](C)[C@@H](NC(=O)[C@H](NC(=O)[C@@H](CO)NC(=O)[C@@H](CO)NC(=O)[C@@H](CCCCN)NC(=O)[C@@H](CO)NC(=O)[C@H]1CCCN1C(=O)[C@@H](CCCCN)NC(=O)[C@@H](CCC(=O)O)NC(=O)[C@@H](C)NC(=O)[C@H](NC(=O)[C@H](N)CS)C(C)C)[C@H](C)O)C(=O)N[C@H](CCCNC(=N)N)C(=O)N[C@H](CCCNC(=N)N)C(=O)N[C@H](Cc1ccc(O)cc1)C(=O)N[C@H](CO)C(=O)N[C@H](CS)C(=O)O [cvaekpsksstirrysc] (H-[dC][dV][dA][dE][dK][dP][dS][dK][dS][dS][dT][dI][dR][dR][dY][dS][dC]-OH; N-terminus and C-terminus assumed), the “ED50 (µM) versus MCP-1” value ([1]; inhibition of THP-1 migration, n.s./ns = not statistically significant) was “ns”, the “% virus inhibition” value (HIV) was “ns” and the “ED50 (µM) versus MIP1α” value [2] was “ns”. The “gp120 ED-50 (µM)” value (gp120) was “ns” and the “ED50 (µM) versus SDF-1α” value [3] was “ns”.

In the case of “^3H-D-ala peptide 3(1-12)[MCP-1]: ^3H-D-ala was attached to Asp (EICAD(3H‑D‑Ala)PKQKWVQ; not fully specified)”, the “time of excretion, primarily via the kidney” value [4] is reported as “approximately 4 hours” and the “time to peak serum concentrations” value [4] is reported as no more than 1 h.

For “labeled peptide: N-terminal biotin conjugate of the sequence n'-CLDPKQKWIQC-c' (Biotin-CLDPKQKWIQC; cysteine pairing not given here)”, the “ED50 for inhibition of MCP-1 induced migration” value ([1]; MCP-1 at 100 ng/ml in RPMI 1640 + 10% FCS, 4 hours, 5 µm filter) was “about 4 µM” and the “binding to parental and chemokine receptor expressing cell lines (in words)” value [5] was “No detectable binding”.
